Data reported in publication PMC9352624, “Going deeper into the toxicokinetics of synthetic cannabinoids: in vitro contribution of human carboxylesterases” (Archives of Toxicology, 2022).

Columns and labels:
[1] = Initial activity screening of AB-PINACA (Thomsen et al. conditions) with pHLM; format: in vitro ADME, human; details: 10 µM, 20 min, 37 °C, 1 µg/µL protein
Method: (§1) The initial activity screening with AB-PINACA was conducted as described by Thomsen et al. with minor modifications (Thomsen et al. [2015]). […] All incubations were done in duplicate. […] Afterwards, 110 µL of 0.1% formic acid in water was added. […] Furthermore, 1 µL was analyzed by liquid chromatography–high-resolution tandem mass spectrometry (LC–HRMS/MS, apparatus details given in the Electronic Supplementary Material).
(§2) Data analysis was based on peak areas.

[2] = Initial activity screening of AB-PINACA (Thomsen et al. conditions) with pHLS9; format: in vitro ADME, human; details: 10 µM, 20 min, 37 °C, 1 µg/µL protein
Method: as §1, §2

hCES1b [3] = biological target: T1, hCES1b (Homo sapiens, UniProt P23141); assay: Initial activity screening of AB-PINACA (Thomsen et al. conditions) with hCES1b; format: in vitro ADME; parameters: purchased Corning (Amsterdam, The Netherlands); host or cells: baculovirus transfected insect cells; details: 10 µM, 20 min, 37 °C, 0.1 µg/µL protein
T1 sequence (P23141 18-567): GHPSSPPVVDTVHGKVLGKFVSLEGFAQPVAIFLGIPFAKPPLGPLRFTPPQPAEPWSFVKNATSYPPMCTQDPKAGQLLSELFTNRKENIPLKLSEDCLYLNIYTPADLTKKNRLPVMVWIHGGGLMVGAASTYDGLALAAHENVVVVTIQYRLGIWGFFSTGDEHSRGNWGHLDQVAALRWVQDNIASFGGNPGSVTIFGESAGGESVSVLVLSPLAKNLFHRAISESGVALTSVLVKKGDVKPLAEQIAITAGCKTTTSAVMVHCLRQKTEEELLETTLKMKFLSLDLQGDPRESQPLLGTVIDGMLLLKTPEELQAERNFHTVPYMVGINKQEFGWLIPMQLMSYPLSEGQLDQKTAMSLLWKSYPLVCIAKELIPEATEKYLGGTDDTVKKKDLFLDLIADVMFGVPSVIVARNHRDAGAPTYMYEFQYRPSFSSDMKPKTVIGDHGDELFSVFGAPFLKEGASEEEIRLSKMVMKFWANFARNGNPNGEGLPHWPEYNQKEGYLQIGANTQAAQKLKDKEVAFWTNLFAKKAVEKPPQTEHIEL
Method: as §1, §2

hCES1c [4] = biological target: T2, hCES1c (Homo sapiens, UniProt P23141); assay: Initial activity screening of AB-PINACA (Thomsen et al. conditions) with hCES1c; format: in vitro ADME; parameters: purchased Corning (Amsterdam, The Netherlands); host or cells: baculovirus transfected insect cells; details: 10 µM, 20 min, 37 °C, 0.1 µg/µL protein
T2 sequence (P23141 18-566 isoform P23141-3 limits assumed): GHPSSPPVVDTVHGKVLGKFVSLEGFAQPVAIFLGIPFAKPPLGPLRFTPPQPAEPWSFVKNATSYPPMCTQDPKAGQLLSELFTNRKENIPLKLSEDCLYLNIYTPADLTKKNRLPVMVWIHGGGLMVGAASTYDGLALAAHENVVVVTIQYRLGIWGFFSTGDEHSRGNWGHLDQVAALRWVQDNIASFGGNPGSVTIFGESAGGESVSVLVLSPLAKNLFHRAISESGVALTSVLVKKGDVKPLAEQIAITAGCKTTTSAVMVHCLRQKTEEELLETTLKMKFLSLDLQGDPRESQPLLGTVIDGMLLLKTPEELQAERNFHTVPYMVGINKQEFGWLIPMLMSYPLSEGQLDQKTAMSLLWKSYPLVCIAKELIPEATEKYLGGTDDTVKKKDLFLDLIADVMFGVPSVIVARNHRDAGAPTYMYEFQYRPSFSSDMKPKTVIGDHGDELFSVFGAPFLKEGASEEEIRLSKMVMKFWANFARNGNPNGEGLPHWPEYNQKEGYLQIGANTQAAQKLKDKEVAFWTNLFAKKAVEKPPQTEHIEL
Method: as §1, §2

hCES2 [5] = biological target: T3, hCES2 (Homo sapiens, UniProt O00748); assay: Initial activity screening of AB-PINACA (Thomsen et al. conditions) with hCES2; format: in vitro ADME; parameters: purchased Corning (Amsterdam, The Netherlands); host or cells: baculovirus transfected insect cells; details: 10 µM, 20 min, 37 °C, 0.1 µg/µL protein
T3 sequence (O00748 27-559): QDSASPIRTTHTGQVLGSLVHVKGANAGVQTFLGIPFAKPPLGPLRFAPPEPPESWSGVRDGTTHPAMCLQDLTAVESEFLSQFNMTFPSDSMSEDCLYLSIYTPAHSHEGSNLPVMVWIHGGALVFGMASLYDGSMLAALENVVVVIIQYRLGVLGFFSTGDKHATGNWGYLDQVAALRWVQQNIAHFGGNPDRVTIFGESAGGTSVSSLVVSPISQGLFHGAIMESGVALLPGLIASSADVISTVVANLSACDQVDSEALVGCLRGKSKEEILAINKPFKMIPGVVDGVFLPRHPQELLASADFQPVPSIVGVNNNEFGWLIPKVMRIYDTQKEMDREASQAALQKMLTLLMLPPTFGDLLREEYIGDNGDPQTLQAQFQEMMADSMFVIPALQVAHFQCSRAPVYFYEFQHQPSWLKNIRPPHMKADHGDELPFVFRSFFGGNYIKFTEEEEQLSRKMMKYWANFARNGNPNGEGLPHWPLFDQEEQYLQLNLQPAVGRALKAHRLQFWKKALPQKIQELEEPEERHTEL
Method: as §1, §2

hCES2 [6] = biological target: T3, hCES2; assay: Initial activity screening with recombinant hCES2; details: 100 µM substrate, 30 min, 37 °C, 0.2 µg/µL protein, LC–ITMS
hCES1b [7] = biological target: T1, hCES1b; assay: Initial activity screening with recombinant hCES1b; details: 100 µM substrate, 30 min, 37 °C, 0.2 µg/µL protein, LC–ITMS
hCES1c [8] = biological target: T2, hCES1c; assay: Initial activity screening with recombinant hCES1c; details: 100 µM substrate, 30 min, 37 °C, 0.2 µg/µL protein, LC–ITMS
hCES1b [9] = biological target: T1, hCES1b; assay: Enzyme kinetic studies of ester hydrolysis with hCES1b
hCES1c [10] = biological target: T2, hCES1c; assay: Enzyme kinetic studies of ester hydrolysis with hCES1c
[11] = Initial activity screening with pooled human liver microsomes; details: 100 µM substrate, 30 min, 37 °C, 2 µg/µL protein, LC–ITMS, mean n = 2
[12] = Initial activity screening with pooled human liver S9 fraction; details: 100 µM substrate, 30 min, 37 °C, 2 µg/µL protein, LC–ITMS, mean n = 2
not read [13] = substrate: C=CCCCn1cc(C(=O)N[C@H](C(=O)OC)C(C)C)c2ccccc21; assay: not read; details: other: ± S.D.; Michaelis–Menten fit, conditions of Table 1; pH 7.4
not read [14] = substrate: COC(=O)C(Cc1ccccc1)NC(=O)c1cn(CCCCCF)c2ccccc12; assay: not read; details: other: ± S.D.; Michaelis–Menten fit, conditions of Table 1; pH 7.4
[15] = ± S.D., peak area ratio metabolite/internal standard

With `CCCCCn1nc(C(=O)N[C@H](C(N)=O)C(C)C)c2ccccc21` [AB-PINACA, (S)-N-(1-amino-3-methyl-1-oxobutan-2-yl)-1-pentyl-1H-indazole-3-carboxamide] the “Relative amount of carboxylic acid metabolite formed (head group carboxamide hydrolysis), pHLM” value ([1]; LC–HRMS/MS) was 4.3%, the “Metabolite detection by LC–ITMS, pHLM” value ([1]; LC–ITMS) was “no AB-PINACA metabolites were detected” and the “Relative amount of carboxylic acid metabolite formed (head group carboxamide hydrolysis), pHLS9” value ([2]; LC–HRMS/MS) was 2.2%. For the same molecule, the “Metabolite detection by LC–ITMS, pHLS9” value ([2]; LC–ITMS) was “no AB-PINACA metabolites were detected”, the “Relative amount of carboxylic acid metabolite formed (head group carboxamide hydrolysis), hCES1b” value (hCES1b [3]; LC–HRMS/MS) was 1.4% and the “Metabolite detection by LC–ITMS, hCES1b” value (hCES1b [3]; LC–ITMS) was “no AB-PINACA metabolites were detected”. The “Metabolite detection by LC–ITMS, hCES1c” value (hCES1c [4]) was “no AB-PINACA metabolites were detected” and the “Metabolite detection by LC–ITMS, hCES2” value (hCES2 [5]) was “no AB-PINACA metabolites were detected”.

In the case of “N-[(2S)-1-amino-3,3-dimethyl-1-oxobutan-2-yl]-1-[(4-fluorophenyl)methyl]-1H-indazole-3-carboxamide [MMB-FUBINACA]”, the “Hydrolysis of carboxamide linker, hCES2” value (hCES2 [6]) is reported as “−”, the “Hydrolysis of carboxamide/ester in head group, hCES2” value (hCES2 [6]) is reported as “+” and the “Relative amount of hydrolysis metabolite formed, hCES2” value (hCES2 [6]; mean n = 2) is reported as 3.2%. The “Hydrolysis of carboxamide linker, hCES1b” value (hCES1b [7]) was “−”, the “Hydrolysis of carboxamide/ester in head group, hCES1b” value (hCES1b [7]) was “+” and the “Relative amount of hydrolysis metabolite formed, hCES1b” value (hCES1b [7]; mean n = 2) was 78%. The “Hydrolysis of carboxamide linker, hCES1c” value (hCES1c [8]) was “−”, the “Hydrolysis of carboxamide/ester in head group, hCES1c” value (hCES1c [8]) was “+” and the “Relative amount of hydrolysis metabolite formed, hCES1c” value (hCES1c [8]; mean n = 2) was 87%. The “Clint (relative in vitro intrinsic clearance), hCES1b” value (hCES1b [9]; Clint = Vmax/Km) was 1.7 AU/min/mg/µM, the Km (hCES1b [9]; read-out: Km, ester hydrolysis by hCES1b, ± S.D., Michaelis–Menten fit, conditions of Table 1) was 40.8 ± 15 µM and the “Vmax (relative), ester hydrolysis by hCES1b” value (hCES1b [9]; [15]) was 70.3 ± 7.6 AU/min/mg. The “Clint (relative in vitro intrinsic clearance), hCES1c” value (hCES1c [10]; Clint = Vmax/Km) was 1.2 AU/min/mg/µM, the Km (hCES1c [10]; read-out: Km, ester hydrolysis by hCES1c, ± S.D., Michaelis–Menten fit, conditions of Table 1) was 25.7 ± 3.5 µM and the “Vmax (relative), ester hydrolysis by hCES1c” value (hCES1c [10]; [15]) was 30.7 ± 0.96 AU/min/mg. For the same molecule, the “Relative amount of hydrolysis metabolite formed, pHLM” value [11] was “complete transformation” and the “Relative amount of hydrolysis metabolite formed, pHLS9” value [12] was “complete transformation”.

B1: hCES1c (Homo sapiens) (protein)
chain: GHPSSPPVVDTVHGKVLGKFVSLEGFAQPVAIFLGIPFAKPPLGPLRFTPPQPAEPWSFVKNATSYPPMCTQDPKAGQLLSELFTNRKENIPLKLSEDCLYLNIYTPADLTKKNRLPVMVWIHGGGLMVGAASTYDGLALAAHENVVVVTIQYRLGIWGFFSTGDEHSRGNWGHLDQVAALRWVQDNIASFGGNPGSVTIFGESAGGESVSVLVLSPLAKNLFHRAISESGVALTSVLVKKGDVKPLAEQIAITAGCKTTTSAVMVHCLRQKTEEELLETTLKMKFLSLDLQGDPRESQPLLGTVIDGMLLLKTPEELQAERNFHTVPYMVGINKQEFGWLIPMLMSYPLSEGQLDQKTAMSLLWKSYPLVCIAKELIPEATEKYLGGTDDTVKKKDLFLDLIADVMFGVPSVIVARNHRDAGAPTYMYEFQYRPSFSSDMKPKTVIGDHGDELFSVFGAPFLKEGASEEEIRLSKMVMKFWANFARNGNPNGEGLPHWPEYNQKEGYLQIGANTQAAQKLKDKEVAFWTNLFAKKAVEKPPQTEHIEL
In the case of B1, the Km (not read [13]) is reported as 203 ± 43 µM and the Km (not read [14]) is reported as 23.2 ± 4.1 µM.

B2: hCES1b (Homo sapiens) (protein)
chain: GHPSSPPVVDTVHGKVLGKFVSLEGFAQPVAIFLGIPFAKPPLGPLRFTPPQPAEPWSFVKNATSYPPMCTQDPKAGQLLSELFTNRKENIPLKLSEDCLYLNIYTPADLTKKNRLPVMVWIHGGGLMVGAASTYDGLALAAHENVVVVTIQYRLGIWGFFSTGDEHSRGNWGHLDQVAALRWVQDNIASFGGNPGSVTIFGESAGGESVSVLVLSPLAKNLFHRAISESGVALTSVLVKKGDVKPLAEQIAITAGCKTTTSAVMVHCLRQKTEEELLETTLKMKFLSLDLQGDPRESQPLLGTVIDGMLLLKTPEELQAERNFHTVPYMVGINKQEFGWLIPMQLMSYPLSEGQLDQKTAMSLLWKSYPLVCIAKELIPEATEKYLGGTDDTVKKKDLFLDLIADVMFGVPSVIVARNHRDAGAPTYMYEFQYRPSFSSDMKPKTVIGDHGDELFSVFGAPFLKEGASEEEIRLSKMVMKFWANFARNGNPNGEGLPHWPEYNQKEGYLQIGANTQAAQKLKDKEVAFWTNLFAKKAVEKPPQTEHIEL
With B2 the Km (not read [14]) was 88.9 ± 18 µM.
